Molecular target: T1, aspartate α-decarboxylase (ADC) (Escherichia coli, UniProt A0A4Y8GT61)
T1 construct: gene panD; recombinant, purified from E. coli by earlier protocols; zymogen self-cleaved into alpha and beta chains, pyruvoyl cofactor at beta N-terminus; homotetramer
Assay: X-ray crystal structure of soaked crystal
Assay type: binding
Conditions: crystals in 1.8 M ammonium sulphate, 100 mM sodium citrate pH 4.5, D-serine soak about 2 min; active site; two ligand conformers (60% / 40% occupancy); inhibitor

N[C@H](CO)C(=O)O [D-serine]
X-ray crystal structure of soaked crystal: The crystal structure of ADC in complex with D-serine was determined
